Test system: excised human skin
Assay: Sodium fluorescein dye penetration into excised human skin in Franz cells, with LSCM imaging and image analysis
Type: in vitro ADME
Conditions: 300 μL NaF 1 mg/mL in saline, 15 minutes, 34-35° C.; images from 73 μm deep
Text: Microneedle Treatment: A piece of gauze was folded in half 4 times and then the skin sample placed on top. In-situ skin tension was approximately simulated by stretching the skin over the gauze and pinning in place. A pre-prepared microneedle impact applicator was then used to apply the microneedle to the skin at speed (approximately 3 m·s−1). This applicator consisted of a housing, a spring-loaded plunger and the banks of laser cut microneedles (two 3-needle banks gave a total of 6 microneedles). The banks were mounted into the plunger which was then drawn back, loading the spring, and held in place using a pin. Upon removal of the pin, the plunger accelerated towards the skin, driving the microneedles through the stratum corneum and into the viable epidermis and dermis.
Dye incubation in Franz Cells: A Franz cell was prepared by applying vacuum grease to the sealing surfaces of the receptor and donor. […]
Laser scanning confocal microscopy (LSCM): To prepare the samples for LSCM, a cut was made around the imprint made by the Franz cell. […] The LSCM machine was then switched to the fluorescent mode with 488 nm excitation and 550±88 nm emission band was recorded. […]
Image analysis: The image data names were encoded to blind the image analysis researcher. […] Image J (NIH, Bethesda, Md.) was then used to quantify fluorescence intensity and dye positive areas. […]

O=C1OC2(c3ccc(O)cc3Oc3cc(O)ccc32)c2ccccc21 [NaF, Sodium Fluorescein]
NaF dye penetration / fluorescence pattern (LSCM, visual): no penetration of the dye beyond the stratum corneum

— US20140336616A1, “DELIVERY DEVICE” (INTERNATIONAL SCIENTIFIC PTY LTD, priority 2012, published 2014)
